Test system: liver MPS NASH model (PHH, KC and HSC co-cultures)
Assay: Cue study: secreted cytokines and chemokines (Luminex) with varying NPC number and added cues (Fig 5a, 5b)
Format: cell-based, human
Settings: Fat media + cue
Source text: There is only limited understanding of the pathogenic drivers of NASH and their interaction, principally due to a lack of translational models that are amenable to detailed molecular analysis[2],[34]. Here, a systems biology ‘cue-signal-analysis’ paradigm[35],[36] was utilised to produce large factorial datasets to enable the identification of molecular pathways of importance. […] To create varying set ups of the NASH microtissues we created hepatocyte microtissues in the MPS with high numbers of NPC (60,000 KC and HSC—equivalent to 10% of microtissue population) and low numbers of NPCs (6000 KC and HSC—equivalent to 1% of microtissue), representing physiological and non-physiological cell ratios respectively. Next, we took these different microtissues and cultured them in media with or without FFA. Finally, we supplemented the media with lipopolysaccharide (LPS), TGFβ, fructose or cholesterol either as single ‘cues’, in pairs or all together (Fig. 4a). ‘Cues’ were selected for clinical association with NASH. LPS, is a pleiotropic inflammatory molecule, it is proposed to reach the liver via the hepatic portal vein after release from the gastrointestinal tract, contributing to disease progression[37],[38]. TGFβ has been extensively studied in relation to fibrosis due to its regulation of genes controlling collagen and matrix-modifying enzymes. Fructose is a key substrate for de-novo lipogenesis, a process that has been identified as a key event in lipid accumulation within NAFLD patients. Finally, cholesterol accumulation has also been linked to NASH disease aetiology.
Assessment of gene expression changes was supplemented by assessment of the secretome produced by NASH microtissues in the MPS after exposure to the various cues. Increased pro-inflammatory cytokine secretion is a defining characteristic in NASH patients, so we conducted a Luminex cytokine array covering 42 different biomarkers, cytokines and chemokines secreted into the culture media of the different microtissues at multiple time points. […]

TGF-β
EGF relative expression (z-transformation) (Day 6): -0.6947 | Eotaxin relative expression (z-transformation) (Day 6): -0.9288 | FGF-2 relative expression (z-transformation) (Day 6): 0.0308 | Fit-3L relative expression (z-transformation) (Day 6): -0.07468 | Fractalkine relative expression (z-transformation) (Day 6): -0.6368 | G-CSF relative expression (z-transformation) (Day 6): 0.1243 | GRO relative expression (z-transformation) (Day 6): -0.2928 | IFN-a2 relative expression (z-transformation) (Day 6): 0.07826 | IL-1RA relative expression (z-transformation) (Day 6): -0.2716 | IL-4 relative expression (z-transformation) (Day 6): -0.7382 | IL-6 relative expression (z-transformation) (Day 6): 0.4237 | IL-7 relative expression (z-transformation) (Day 6): -0.09812 | IL-8 relative expression (z-transformation) (Day 6): 0.2731 | IL-15 relative expression (z-transformation) (Day 6): 0.3864 | IP-10 relative expression (z-transformation) (Day 6): -0.5991 | MCP-1 relative expression (z-transformation) (Day 6): -0.1254 | MCP-3 relative expression (z-transformation) (Day 6): -0.3354 | MDC relative expression (z-transformation) (Day 6): 1.089 | MIP-1a relative expression (z-transformation) (Day 6): -0.3189 | MIP-1b relative expression (z-transformation) (Day 6): -0.5904 | TNFa relative expression (z-transformation) (Day 6): -0.3323 | VEGF relative expression (z-transformation) (Day 6): 0.1644 | EGF relative expression (z-transformation) (Day 11): 0.4971 | Eotaxin relative expression (z-transformation) (Day 11): -0.7902 | FGF-2 relative expression (z-transformation) (Day 11): 1.282 | Fit-3L relative expression (z-transformation) (Day 11): -1.046 | Fractalkine relative expression (z-transformation) (Day 11): 0.2445 | G-CSF relative expression (z-transformation) (Day 11): 1.379 | GM-CSF relative expression (z-transformation) (Day 11): -0.7569 | GRO relative expression (z-transformation) (Day 11): -0.05931 | IFN-a2 relative expression (z-transformation) (Day 11): -0.7423 | IL-1RA relative expression (z-transformation) (Day 11): 1.044 | IL-4 relative expression (z-transformation) (Day 11): 2.047 | IL-6 relative expression (z-transformation) (Day 11): -0.4878 | IL-7 relative expression (z-transformation) (Day 11): 0.613 | IL-8 relative expression (z-transformation) (Day 11): 1.674 | IL-15 relative expression (z-transformation) (Day 11): 1.1283 | IP-10 relative expression (z-transformation) (Day 11): -0.5014 | MCP-1 relative expression (z-transformation) (Day 11): -0.1617 | MCP-3 relative expression (z-transformation) (Day 11): 1.036 | MDC relative expression (z-transformation) (Day 11): -0.8939 | MIP-1a relative expression (z-transformation) (Day 11): -0.2467 | MIP-1b relative expression (z-transformation) (Day 11): -0.2666 | TNFa relative expression (z-transformation) (Day 11): -0.5851 | VEGF relative expression (z-transformation) (Day 11): 0.04572 | EGF relative expression (z-transformation) (Day 14): -0.7709 | Eotaxin relative expression (z-transformation) (Day 14): -0.8142 | FGF-2 relative expression (z-transformation) (Day 14): -0.6405 | Fit-3L relative expression (z-transformation) (Day 14): -1.202 | Fractalkine relative expression (z-transformation) (Day 14): -0.4453 | G-CSF relative expression (z-transformation) (Day 14): 2.694 | GM-CSF relative expression (z-transformation) (Day 14): -0.9022 | GRO relative expression (z-transformation) (Day 14): -0.07849 | IFN-a2 relative expression (z-transformation) (Day 14): 0.3354 | IL-1RA relative expression (z-transformation) (Day 14): 0.4791 | IL-4 relative expression (z-transformation) (Day 14): 0.3542 | IL-6 relative expression (z-transformation) (Day 14): -0.7405 | IL-7 relative expression (z-transformation) (Day 14): -0.2291 | IL-8 relative expression (z-transformation) (Day 14): 1.963 | IL-15 relative expression (z-transformation) (Day 14): 1.049 | IP-10 relative expression (z-transformation) (Day 14): -0.2731 | MCP-1 relative expression (z-transformation) (Day 14): -0.3727 | MCP-3 relative expression (z-transformation) (Day 14): 1.8775 | MDC relative expression (z-transformation) (Day 14): -0.4908 | MIP-1a relative expression (z-transformation) (Day 14): -0.1191 | MIP-1b relative expression (z-transformation) (Day 14): -0.282 | TNFa relative expression (z-transformation) (Day 14): -0.5429 | VEGF relative expression (z-transformation) (Day 14): -0.6644
